Measured values: ChEMBL document CHEMBL6177950, “Discovery of potent and selective CDK2 inhibitors with high safety and favorable bioavailability for the treatment of cancer” (Eur J Med Chem, 2025)
Calls of active or inactive are those of the source. The calls are words filed in the database; no cut-off is given here.

How the values were obtained:
OVCAR-3 [1] = assay: Antitumor activity against human OVCAR-3 cells xenografted in nude BALB/c mouse model assessed as tumor growth inhibition administered as po once daily for 21 days; type: functional, organism-based; conditions: dose 40-80 mg/kg, time 21.0 day
[2] = MRT (0 to infinity) in Sprague-Dawley rat at 20 mg/kg, po by LC-MS/MS analysis; type: ADME, organism-based; conditions: in vivo
OVCAR-3 [3] = assay: Upregulation of JUNB gene expression in human OVCAR-3 cells by GSEA; type: functional, cell-based
OVCAR-3 [4] = assay: Upregulation of JUN gene expression in human OVCAR-3 cells by GSEA; type: functional, cell-based
OVCAR-3 [5] = assay: Induction of apoptosis in human OVCAR-3 cells assessed as late apoptotic cells at 2 uM incubated for 24 hrs by Annexin V-FITC/PI staining based flow cytometry analysis (reference value: 2.67%); type: functional
[6] = Toxicity in nude BALB/c mouse xenografted with human OVCAR-3 cells assessed as increase in body weight at 40 to 80 mg/kg, po administered once daily for 21 days; type: organism-based; conditions: in vivo, 504 h, dose 40-80 mg/kg, time 21 day
[7] = Acute toxicity in ICR mouse assessed as pathological changes in kidney at 1000 to 2500 mg/kg, po administered once for 14 days by H and E staining analysis; type: organism-based; conditions: in vivo, 336 h, dose 1000-2500 mg/kg, time 14 day
[8] = Acute toxicity in ICR mouse assessed as effect on kidney weight at 1000 to 2500 mg/kg, po administered once for 14 days; type: organism-based; conditions: in vivo, 336 h, dose 1000-2500 mg/kg, time 14 day
OVCAR-3 [9] = assay: Antitumor activity against human OVCAR-3 cells xenografted in nude BALB/c mouse model assessed as tumor growth inhibition at 80 mg/kg, po administered once daily for 21 days; type: functional, organism-based; conditions: time 21.0 day
[10] = AUC (0 to infinity) in Sprague-Dawley rat at 20 mg/kg, po by LC-MS/MS analysis; type: ADME, organism-based; conditions: in vivo
[11] = Acute toxicity in ICR mouse assessed as pathological changes in spleen at 1000 to 2500 mg/kg, po administered once for 14 days by H and E staining analysis; type: organism-based; conditions: in vivo, 336 h, dose 1000-2500 mg/kg, time 14 day
OVCAR-3 [12] = assay: Induction of apoptosis in human OVCAR-3 cells assessed as viable cells at 2 uM incubated for 24 hrs by Annexin V-FITC/PI staining based flow cytometry analysis (reference value: 95.2%); type: functional; conditions: read-out: Activity
[13] = Clearance in Sprague-Dawley rat at 2 mg/kg, iv by LC-MS/MS analysis; type: ADME, organism-based; conditions: in vivo
[14] = Antiproliferative activity against CCNE1-amplified human OVCAR-3 cells assessed as cell growth inhibition incubated for 3 days by CCK8 assay; type: functional, cell-based; conditions: OVCAR-3, 72 h
[15] = Cmax in Sprague-Dawley rat at 20 mg/kg, po by LC-MS/MS analysis; type: ADME, organism-based; conditions: in vivo
[16] = Acute toxicity in ICR mouse assessed as effect on liver weight at 1000 to 2500 mg/kg, po administered once for 14 days; type: organism-based; conditions: in vivo, 336 h, dose 1000-2500 mg/kg, time 14 day
[17] = Acute toxicity in ICR mouse assessed as pathological changes in heart at 1000 to 2500 mg/kg, po administered once for 14 days by H and E staining analysis; type: organism-based; conditions: in vivo, 336 h, dose 1000-2500 mg/kg, time 14 day
OVCAR-3 [18] = assay: Induction of cell cycle arrest in human OVCAR-3 cells assessed as accumulation of cells at G1 phase at 1 uM incubated for 24 hrs by flow cytometry analysis (reference value: 67.73%); type: functional
[19] = Half life in Sprague-Dawley rat at 20 mg/kg, po by LC-MS/MS analysis; type: ADME, organism-based; conditions: in vivo
OVCAR-3 [20] = assay: Upregulation of apoptosis-related signaling pathway gene expression in human OVCAR-3 cells by GSEA; type: functional, cell-based
[21] = Oral bioavailability in Sprague-Dawley rat at 20 mg/kg by LC-MS/MS analysis; type: ADME, organism-based; conditions: in vivo
[22] = Clearance in Sprague-Dawley rat at 20 mg/kg, po by LC-MS/MS analysis; type: ADME, organism-based; conditions: in vivo
OVCAR-3 [23] = assay: Induction of apoptosis in human OVCAR-3 cells assessed as reduction in Bcl2 expression incubated for 24 hrs by Western blot analysis; type: functional, cell-based
OVCAR-3 [24] = assay: Induction of apoptosis in human OVCAR-3 cells assessed as upregulation of PARP cleavage incubated for 24 hrs by Western blot analysis; type: functional, cell-based
CDK1/Cyclin A = CDK1/Cyclin A (Homo sapiens, UniProt P06493); assay: Inhibition of CDK1/Cyclin A2 (unknown origin) pre-incubated for 10 mins followed by ATP/substrate addition and measured after 60 mins by ADP-Glo assay; type: protein-complex assay
[25] = molecular target: Cyclin-dependent kinase 2/cyclin E1 (Homo sapiens, UniProt P24941); assay: Inhibition of CDK2/Cyclin E1 (unknown origin) pre-incubated for 10 mins followed by ATP/substrate addition and measured after 60 mins by ADP-Glo assay; type: protein-complex assay
[26] = Acute toxicity in ICR mouse assessed as animal death at 1000 to 2500 mg/kg, po administered once for 14 days; type: organism-based; conditions: in vivo, 336 h, dose 1000-2500 mg/kg, time 14 day
[27] = Half life in Sprague-Dawley rat at 2 mg/kg, iv by LC-MS/MS analysis; type: ADME, organism-based; conditions: in vivo
OVCAR-3 [28] = assay: Induction of apoptosis in human OVCAR-3 cells assessed as necrotic cells at 2 uM incubated for 24 hrs by Annexin V-FITC/PI staining based flow cytometry analysis (reference value: 0.87%); type: functional
[29] = Acute toxicity in ICR mouse assessed as pathological changes in liver at 1000 to 2500 mg/kg, po administered once for 14 days by H and E staining analysis; type: organism-based; conditions: in vivo, 336 h, dose 1000-2500 mg/kg, time 14 day
OVCAR-3 [30] = assay: Induction of cell cycle arrest in human OVCAR-3 cells assessed as accumulation of cells at G2 phase at 2 uM incubated for 24 hrs by flow cytometry analysis (reference value: 21.77%); type: functional
[31] = Acute toxicity in ICR mouse assessed as effect on spleen weight at 1000 to 2500 mg/kg, po administered once for 14 days; type: organism-based; conditions: in vivo, 336 h, dose 1000-2500 mg/kg, time 14 day
[32] = Acute toxicity in ICR mouse assessed as pathological changes in lung at 1000 to 2500 mg/kg, po administered once for 14 days by H and E staining analysis; type: organism-based; conditions: in vivo, 336 h, dose 1000-2500 mg/kg, time 14 day
OVCAR-3 [33] = assay: Induction of apoptosis in human OVCAR-3 cells assessed as late apoptotic cells at 1 uM incubated for 24 hrs by Annexin V-FITC/PI staining based flow cytometry analysis (reference value: 2.67%); type: functional
[34] = Tmax in Sprague-Dawley rat at 20 mg/kg, po by LC-MS/MS analysis; type: ADME, organism-based; conditions: in vivo
OVCAR-3 [35] = assay: Induction of cell cycle arrest in human OVCAR-3 cells assessed as inhibition of RB phosphorylation level incubated for 24 hrs by Western blot analysis; type: functional, cell-based
OVCAR-3 [36] = assay: Downregulation of proliferation-related signaling pathway gene expression in human OVCAR-3 cells by GSEA; type: functional, cell-based
OVCAR-3 [37] = assay: Induction of apoptosis in human OVCAR-3 cells incubated for 24 hrs by Annexin V-FITC/PI staining based flow cytometry analysis; type: functional, cell-based; conditions: dose 1-2 µM
[38] = C0 in Sprague-Dawley rat at 2 mg/kg, iv by LC-MS/MS analysis; type: ADME, organism-based; conditions: in vivo
OVCAR-3 [39] = assay: Induction of apoptosis in human OVCAR-3 cells assessed as early apoptotic cells at 1 uM incubated for 24 hrs by Annexin V-FITC/PI staining based flow cytometry analysis (reference value: 1.25%); type: functional

Sequence of CDK1/Cyclin A (P06493 whole entry): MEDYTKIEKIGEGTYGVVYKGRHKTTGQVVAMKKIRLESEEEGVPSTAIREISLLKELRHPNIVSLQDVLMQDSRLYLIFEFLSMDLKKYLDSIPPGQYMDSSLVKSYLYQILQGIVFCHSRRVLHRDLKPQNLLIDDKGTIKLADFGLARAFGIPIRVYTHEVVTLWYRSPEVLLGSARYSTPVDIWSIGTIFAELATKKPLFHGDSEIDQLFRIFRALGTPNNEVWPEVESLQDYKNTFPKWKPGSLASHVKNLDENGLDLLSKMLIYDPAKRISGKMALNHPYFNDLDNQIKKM
Sequence of CDK1/Cyclin A (P20248 whole entry, further chain): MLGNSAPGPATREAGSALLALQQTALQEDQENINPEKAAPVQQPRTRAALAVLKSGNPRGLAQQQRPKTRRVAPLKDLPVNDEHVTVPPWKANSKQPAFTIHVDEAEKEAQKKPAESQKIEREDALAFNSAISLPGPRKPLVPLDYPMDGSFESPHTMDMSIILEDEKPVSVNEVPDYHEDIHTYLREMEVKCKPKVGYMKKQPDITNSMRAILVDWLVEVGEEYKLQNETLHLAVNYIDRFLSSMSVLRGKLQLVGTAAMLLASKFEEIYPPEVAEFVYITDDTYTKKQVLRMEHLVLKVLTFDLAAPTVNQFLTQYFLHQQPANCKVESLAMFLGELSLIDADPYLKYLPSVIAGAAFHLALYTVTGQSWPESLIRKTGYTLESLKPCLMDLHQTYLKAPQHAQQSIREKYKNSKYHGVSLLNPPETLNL

## CCC(C)n1cc(-c2nc(NC3CCN(S(=O)(=O)C4CC4)CC3)ncc2F)cc(F)c1=O (stereo not given)
OVCAR-3 [1]
  Activity: Dose-dependent-effect
[2]
  MRT inf: 6.7 h
OVCAR-3 [3]
  Activity: Active
OVCAR-3 [4]
  Activity: Active
OVCAR-3 [5]
  Activity: 13.2%
[6]
  Activity: Non-toxic
[7]
  Activity: Non-toxic
[8]
  Activity: Non-toxic
OVCAR-3 [9]
  Activity: Active
[10]
  AUC(0-inf): 11800 ng·h/mL
[11]
  Activity: Non-toxic
OVCAR-3 [12]
  viability at 2 µM: 79.3%
[13]
  clearance: 28.3 mL/min/kg
[14]
  IC50: 1.61 µM
[15]
  Cmax: 2130 ng/mL
[16]
  Activity: Non-toxic
[17]
  Activity: Non-toxic
OVCAR-3 [18]
  Activity: 94.69%
[19]
  half-life: 4.54 h
OVCAR-3 [20]
  Activity: Active
[21]
  bioavailability: 79.5%
[22]
  CL/F: 29.2 mL/min/kg
OVCAR-3 [23]
  Activity: Dose-dependent-effect
OVCAR-3 [24]
  Activity: Dose-dependent-effect
CDK1/Cyclin A
  IC50: 0.015 µM
[25]
  IC50: 0.0009 µM
[26]
  Activity: Non-toxic
[27]
  half-life: 0.93 h
OVCAR-3 [28]
  Activity: 3.74%
[29]
  Activity: Non-toxic
OVCAR-3 [30]
  Activity: 2.09%
[31]
  Activity: Non-toxic
[32]
  Activity: Non-toxic
OVCAR-3 [33]
  Activity: 7.72%
[34]
  Tmax: 0.5 h
OVCAR-3 [35]
  Activity: Active
OVCAR-3 [36]
  Activity: Active
OVCAR-3 [37]
  Activity: Dose-dependent-effect
[38]
  C0: 1670 ng/mL
OVCAR-3 [39]
  Activity: 2.65%
